Source: US12465605B2, “Methods and materials for gender-dependent treatment of cardiovascular dysfunction” (Mayo Foundation for Medical Education and Research, priority 2019, dated 2025)

Tests used:
[1] = test system: patients with mild-to-moderate calcific aortic valve stenosis; assay: Phase II clinical trial, six months, progression of valve disease; type: in vivo, human
From the text: Phase II clinical trial design: Patients with mild-to-moderate calcific aortic valve stenosis (valve area between 1.0 cm^2 and 2.0 cm^2) with well-preserved left ventricular function (ejection fraction>50%) and significant valve calcification (calcium levels>300 units by computed tomography scanning) were recruited for participation in a randomized, double-blind, placebo-controlled trial. After screening, patients were randomized into two groups: • (1) placebo treatment for a minimum of 6 months, or • (2) ataciguat treatment for a minimum of 6 months Patients underwent computed tomography measurements of aortic valve calcification, echocardiographic assessments of ventricular and aortic valve function, and DEXA scanning for assessment of systemic bone mineral density at baseline and at six month intervals after initiation of treatment.
LPA studies in humans with aortic valve calcification: Human plasma LPA levels were measured using a colorimetric, sandwich/quantitative ELISA assay (AB212165) after samples were diluted in diluent buffer. Computed tomography scanning was performed using clinical grade, high-resolution scanning methods that are well-established for assessment of aortic valve calcification. The calcium burden was measured from 3-dimensional, multi-slice images and expressed as arbitrary units (AU).
To determine whether ataciguat could slow progression of FCAVS, a randomized, double-blind, placebo-controlled study was conducted in patients with mild/moderate valvular disease. Key eligibility criteria for the study included valvular calcium levels above 300 AU, a valve area between 1.0 and 2.0 cm^2, an ejection fraction greater than 50%, and absence of congenital heart valve disease (full inclusion/exclusion criteria is shown in TABLE 1). Patients were randomized to placebo or ataciguat treatment for six months, and a subset of patients received treatment for 12 months. Importantly, there was no difference in measured hemodynamic, blood biochemistry, drug treatment, or comorbidity indices between treatment groups at baseline. Given the relatively short duration of follow-up, the primary outcome variable was the change in valvular calcium over time. Secondary and tertiary outcomes were aortic valve and left ventricular function, respectively.

[2] = test system: LPA-induced BMP signaling; assay: LPA-induced BMP signaling (Osterix mRNA) in aortic valve interstitial cells; type: cell-based; conditions: 18:0 lyso-PA with ataciguat
Description: In vitro cell culture studies: Aortic valve interstitial cells were isolated using an outgrowth method, and were expanded in DMEM/F-10 medium with 10% FBS and studied in passages 2-10. Cells were treated for 24 hours under each experimental condition, at which point mRNA was harvested using lysis buffer. After mRNA isolation and reverse transcription, gene expression was measured using quantitative real-time RT-PCR and Taqman primers. Changes in gene expression were assessed by the ddCt method and expressed as fold-change normalized to control conditions.
Additional studies were conducted in aortic valve interstitial cells to examine the effects of ataciguat on LPA-induced BMP signaling and BMP target gene expression. Cells were treated with 18:0 lyso-PA, with or without ataciguat, and Osterix mRNA levels were determined.

[3] = test system: patients with mild-to-moderate calcific aortic valve stenosis; assay: Phase I clinical trial, 14 days, blood pressure and orthostatic tolerance; type: in vivo, human
From the text: Phase I clinical trial design: Patients with mild-to-moderate calcific aortic valve stenosis (valve area between 1.0 cm^2 and 2.0 cm^2) with well-preserved left ventricular function (ejection fraction>50%) were recruited for participation in a randomized, double-blind, placebo-controlled trial. After screening, patients were randomized into two groups: • (1) placebo treatment for 14 days, or • (2) ataciguat treatment for 14 days. Patients underwent a series of tests to assess baseline blood pressure (seated and supine body positions), orthostatic tolerance (transition to standing, tilt table testing), and blood tests to assess liver enzyme function.
Combining ataciguat's role as an activator of heme-free sGC with reports of increased systemic oxidative stress in patients with FCAVS (Mourino-Alvarez et al., Int. J Cardiol., 225:99-106 (2016)), it was conceivable that administration of ataciguat could elicit acute hypotension or increase propensity to experience orthostatic hypotension. To investigate this possibility, a randomized, double-blind, placebo-controlled, dose-escalation study was conducted to assess the effects of ataciguat on orthostatic tolerance using both a standing test (highly functional) and a tilt table test (highly sensitive).

canonical BMP signaling = assay: BMP2-induced signaling in aortic valve interstitial cells; type: cell-based, mouse; conditions: cells treated with BMP2 with or without ataciguat
Description: To confirm that ataciguat effectively activated sGC in cells, mouse aortic valve interstitial cells (mVICs) were isolated from C57BL6/J mice treated with ataciguat or other sGC agonists as internal controls. […] To determine whether ataciguat could attenuate signaling cascades central to the initiation and progression of valve calcification in vitro, cells were treated with BMP2 with or without ataciguat. In these studies, ataciguat reduced phospho-SMAD1/5/8 signaling (e.g., canonical BMP signaling) as well as expression of osteogenic genes induced by BMP2 (e.g., osterix).

[4] = 200 mg/day, all subjects combined
[5] = 200 mg/day, both sexes combined
[6] = 14 days, vs pre-treatment or placebo

## O=C(Nc1ccc(S(=O)(=O)N2CCOCC2)cc1)c1cc(Cl)ccc1NS(=O)(=O)c1ccc(Cl)s1 [ataciguat, 5-chloro-2-[[(5-chloro-2-thienyl)sulfonyl]amino]-N-[4-(4-morpholinylsulfonyl)phenyl]-benzamide]
[1]; 200 mg/day
  changes in aortic valve area, male versus female patients: therapeutic benefit was predominantly conferred to male patients
  changes in peak transvalvular velocity: negligible impact
[1]; [4]
  aortic pulse pressure (index of arterial stiffness), seated: attenuated
  left ventricular diastolic function (E/e′ or E/A ratio): attenuate further progression of diastolic dysfunction
  left ventricular systolic function (ejection fraction or stroke volume): prevent the decline in left ventricular function
[1]; [5]
  changes in aortic valve area: can attenuate progression of aortic valve dysfunction
  progression of valve calcification: significantly attenuated
[1]; 200 mg/day, female subjects
  left ventricular stroke volume: potential worsening
  left ventricular systolic function: no consistent benefit
[1]; 200 mg/day, females
  left ventricular diastolic function (E/e′ or E/A ratio): negligible therapeutic benefit
  pulse pressure: no apparent therapeutic benefit
[1]; 200 mg/day, male patients compared to females
  progression of valve calcification, male versus female patients: much greater therapeutic benefit
[1]; 200 mg/day, male subjects
  left ventricular diastolic function (E/e′ or E/A ratio): predominant recipients of any therapeutic benefit
  left ventricular systolic function (ejection fraction or stroke volume): improved left ventricular systolic function
[1]; males, compared to placebo
  pulse pressure: reduction in pulse pressure
[1]; p=0.24 vs baseline
  aortic valve function vs baseline: did not worsen significantly
[1]; patients with higher vs lower baseline plasma LPA
  changes in valvular calcium in relation to baseline plasma LPA: tended to receive greater therapeutic benefit
[2]
  LPA effect on expression of Osterix: dramatically suppressed
[3]; 100 mg/day, 14 days
  seated systolic and diastolic blood pressure: significantly reduced
[3]; 200 mg/day, 14 days
  seated systolic and diastolic blood pressure: did not have a significant effect
[3]; 14 days
  supine systolic and diastolic blood pressure: significantly reduced
[3]; 14 days, seated to standing
  changes in heart rate upon standing: did not significantly or consistently alter
  changes in systolic and diastolic blood pressure upon standing: did not significantly or consistently alter
[3]; [6]
  blood pressure responses to head-up tilt: did not consistently or significantly alter
  heart rate responses to head-up tilt: did not consistently or significantly alter
[3]; either dose, 14 days
  resting blood pressure: did not significantly alter
[3]; humans
  tolerability (side effects and blood pressure regulation): well tolerated
Canonical BMP signaling
  expression of osteogenic genes induced by BMP2 (e.g., osterix): reduced
  phospho-SMAD1/5/8 signaling (canonical BMP signaling): reduced
